{"source": "patent US10961238B2", "about": "“Modulators of hedgehog (Hh) signaling pathway” (E-THERAPEUTICS PLC, priority 2016, dated 2021)"}
{"test_system": "C3H10T1/2 cells", "experiment": "C3H assay: differentiation of C3H10T1/2 cells by mSHH, measurement of alkaline phosphatase", "format": "cell-based, mouse", "settings": "C3H10T1/2 cells stimulated with mSHH for 72 hours; alkaline phosphatase activity; read-out: IC50 Ranges", "units": {"IC50": "nM"}}
{"smiles": "O=C(OCc1cccc([N+](=O)[O-])c1)N1CC(S(=O)(=O)N2CCC(c3c[nH]c4ncccc34)CC2)C1", "note": "[Compound 213, (3-nitrophenyl) methyl 3-[4-(1H-pyrrolo[2,3-b]pyridin-3-yl)piperidin-1-yl]sulfonylaze-tidine-1-carboxylate]", "IC50": "< 10"}
{"smiles": "CC(C)(C)OC(=O)N1CCC(S(=O)(=O)N2CC=C(c3n[nH]c4ncccc34)CC2)CC1", "note": "[Compound 229, tert-butyl 4-[[4-(1H-pyrazolo[3,4-b]pyridin-3-yl)-3,6-dihydro-2H-pyridin-1-yl]sulfonyl] piperidine-1-carboxylate]", "IC50": "1000 to 10000"}
{"test_system": "C3H10T1/2 cells", "experiment": "C3H assay: differentiation of C3H10T1/2 cells by mSHH, measurement of alkaline phosphatase", "format": "cell-based, mouse", "settings": "Mus musculus, C3H 10T1/2, 72 h, read-out: IC50 Ranges", "units": {"IC50": "nM"}}
{"smiles": "O=C(Oc1cccnc1)N1CC(S(=O)(=O)N2CCC(c3c[nH]c4ncccc34)CC2)C1", "note": "[Compound 212, pyridin-3-yl 3-[4-(1H-pyrrolo [2,3-b]pyridin-3-yl)piperidin-1-yl]sulfonylaze-tidine-1-carboxylate]", "IC50": "10 to 100"}
{"test_system": "C3H10T1/2 cells", "experiment": "C3H assay: differentiation of C3H10T1/2 cells by mSHH, measurement of alkaline phosphatase", "format": "cell-based, mouse", "settings": "Mus musculus, C3H 10T1/2; C3H10T1/2 cells stimulated with mSHH for 72 hours; alkaline phosphatase activity; read-out: IC50 Ranges", "units": {"IC50": "nM"}}
{"smiles": "CC(C)C(=O)N1CC(S(=O)(=O)N2CCC(c3c[nH]c4ncccc34)CC2)C1", "note": "[Compound 194, 2-methyl-1-[3-[4-(1H-pyrrolo[2,3-b]pyridin-3-yl)piperidin-1-yl]sulfonylaze-tidin-1-yl]propan-1-one]", "IC50": "100 to 1000"}
{"smiles": "CC(C)CC(=O)N1CC(S(=O)(=O)N2CCC(c3c[nH]c4ncccc34)CC2)C1", "note": "[Compound 195, 3-methyl-1-[3-[4-(1H-pyrrolo[2,3-b]pyridin-3-yl)piperidin-1-yl]sulfonylaze-tidin-1-yl]butan-1-one]", "IC50": "10 to 100"}
{"smiles": "O=C(O[C@@H]1CCOC1)N1CC(S(=O)(=O)N2CCC(c3c[nH]c4ncccc34)CC2)C1", "note": "[Compound 196, [(3R)-oxolan-3-yl]3-[4-(1H-pyrrolo[2,3-b]pyridin-3-yl)piperidin-1-yl]sulfonylaze-tidine-1-carboxylate]", "IC50": "100 to 1000"}
{"smiles": "O=C(O[C@H]1CCOC1)N1CC(S(=O)(=O)N2CCC(c3c[nH]c4ncccc34)CC2)C1", "note": "[Compound 197, [(3S)-oxolan-3-yl]3-[4-(1H-pyrrolo[2,3-b]pyridin-3-yl)piperidin-1-yl]sulfonylaze-tidine-1-carboxylate]", "IC50": "10 to 100"}
{"smiles": "O=C(OC1CCC1)N1CC(S(=O)(=O)N2CCC(c3c[nH]c4ncccc34)CC2)C1", "note": "[Compound 198, cyclobutyl 3-[4-(1H-pyrrolo[2,3-b]pyridin-3-yl)piperidin-1-yl]sulfonylaze-tidine-1-carboxylate]", "IC50": "10 to 100"}
{"smiles": "CC1(COC(=O)N2CC(S(=O)(=O)N3CCC(c4c[nH]c5ncccc45)CC3)C2)COC1", "note": "[Compound 199, (3-methyloxetan-3-yl)methyl 3-[4-(1H-pyrrolo[2,3-b]pyridin-3-yl)piperidin-1-yl]sulfonylaze-tidine-1-carboxylate]", "IC50": "10 to 100"}
{"smiles": "CC[C@@H](C)OC(=O)N1CC(S(=O)(=O)N2CCC(c3c[nH]c4ncccc34)CC2)C1", "note": "[Compound 200, [(2R)-butan-2-yl]3-[4-(1H-pyrrolo[2,3-b]pyridin-3-yl)piperidin-1-yl]sulfonylaze-tidine-1-carboxylate]", "IC50": "10 to 100"}
{"smiles": "O=C(OCC1CCC1)N1CC(S(=O)(=O)N2CCC(c3c[nH]c4ncccc34)CC2)C1", "note": "[Compound 201, cyclobutylmethyl 3-[4-(1H-pyrrolo[2,3-b]pyridin-3-yl)piperidin-1-yl]sulfonylaze-tidine-1-carboxylate]", "IC50": "10 to 100"}
{"smiles": "Cc1noc(C)c1COC(=O)N1CC(S(=O)(=O)N2CCC(c3ccncc3)CC2)C1", "note": "[Compound 202, (3,5-dimethyl-1,2-oxazol-4-yl)methyl 3-(4-pyridin-4-ylpiperidin-1-yl)sulfonylaze-tidine-1-carboxylate]", "IC50": "100 to 1000"}
{"smiles": "Cc1noc(C)c1CNC(=O)N1CC(S(=O)(=O)N2CCC(c3ccncc3)CC2)C1", "note": "[Compound 203, N-[(3,5-dimethyl-1,2-oxazol-4-yl)methyl]-3-(4-pyridin-4-ylpiperidin-1-yl)sulfonylaze-tidine-1-carboxamide]", "IC50": "1000 to 10000"}
{"smiles": "O=C(OCC1CC1)N1CC(S(=O)(=O)N2CCC(c3c[nH]c4ncccc34)CC2)C1", "note": "[Compound 204, cyclopropylmethyl 3-[4-(1H-pyrrolo[2,3-b]pyridin-3-yl)piperidin-1-yl]sulfonylaze-tidine-1-carboxylate]", "IC50": "10 to 100"}
{"smiles": "Cc1noc(C)c1CC(=O)N1CC(S(=O)(=O)N2CCC(c3ccncc3)CC2)C1", "note": "[Compound 205, 2-(3,5-dimethyl-1,2-oxazol-4-yl)-1-[3-(4-pyridin-4-ylpiperidin-1-yl)sulfonylaze-tidin-1-yl]ethanone]", "IC50": "10 to 100"}
{"smiles": "CCN(C(=O)N1CC(S(=O)(=O)N2CCC(c3c[nH]c4ncccc34)CC2)C1)C(C)C", "note": "[Compound 206, N-ethyl-N-propan-2-yl-3-[4-(1H-pyrrolo[2,3-b]pyridin-3-yl)piperidin-1-yl]sulfonylaze-tidine-1-carboxamide]", "IC50": "10 to 100"}
{"smiles": "O=C(OCc1cccc(Oc2ccccc2)c1)N1CC(S(=O)(=O)N2CCC(c3c[nH]c4ncccc34)CC2)C1", "note": "[Compound 207, (3-phenoxyphenyl) methyl 3-[4-(1H-pyrrolo [2,3-b]pyridin-3-yl)piperidin-1-yl]sulfonylaze-tidine-1-carboxylate]", "IC50": "10 to 100"}
{"smiles": "Cc1cc(C)cc(OC(=O)N2CC(S(=O)(=O)N3CCC(c4c[nH]c5ncccc45)CC3)C2)c1", "note": "[Compound 208, (3,5-dimethylphenyl) 3-[4-(1H-pyrrolo[2,3-b]pyridin-3-yl)piperidin-1-yl]sulfonylaze-tidine-1-carboxylate]", "IC50": "100 to 1000"}
{"smiles": "COc1ccc(COC(=O)N2CC(S(=O)(=O)N3CCC(c4c[nH]c5ncccc45)CC3)C2)cc1F", "note": "[Compound 209, (3-fluoro-4-methoxyphenyl) methyl 3-[4-(1H-pyrrolo[2,3-b]pyridin-3-yl)piperidin-1-yl]sulfonylaze-tidine-1-carboxylate]", "IC50": "10 to 100"}
{"smiles": "O=C(OC1CCNCC1)N1CC(S(=O)(=O)N2CCC(c3c[nH]c4ncccc34)CC2)C1", "note": "[Compound 210, piperidin-4-yl 3-[4-(1H-pyrrolo[2,3-b]pyridin-3-yl)piperidin-1-yl]sulfonylaze-tidine-1-carboxylate]", "IC50": "100 to 1000"}
{"smiles": "CC(C)(C)OC(=O)N1CCC(OC(=O)N2CC(S(=O)(=O)N3CCC(c4c[nH]c5ncccc45)CC3)C2)CC1", "note": "[Compound 211, tert-butyl 4-[3-[4-(1H-pyrrolo[2,3-b]pyridin-3-yl)piperidin-1-yl]sulfonylaze-tidine-1-carbonyl] oxypiperidine-1-carboxylate]", "IC50": "10 to 100"}
{"smiles": "COc1ccc(COC(=O)N2CC(S(=O)(=O)N3CCC(c4c[nH]c5ncccc45)CC3)C2)cc1", "note": "[Compound 214, (4-methoxyphenyl) methyl 3-[4-(1H-pyrrolo[2,3-b]pyridin-3-yl)piperidin-1-yl]sulfonylaze-tidine-1-carboxylate]", "IC50": "10 to 100"}
{"smiles": "COc1cccc(OC(=O)N2CC(S(=O)(=O)N3CCC(c4c[nH]c5ncccc45)CC3)C2)c1", "note": "[Compound 215, (3-methoxyphenyl) 3-[4-(1H-pyrrolo[2,3-b]pyridin-3-yl)piperidin-1-yl]sulfonylaze-tidine-1-carboxylate]", "IC50": "10 to 100"}
{"smiles": "O=C(OC1CCOCC1)N1CC(S(=O)(=O)N2CCC(c3c[nH]c4ncccc34)CC2)C1", "note": "[Compound 218, oxan-4-yl 3-[4-(1H-pyrrolo[2,3-b]pyridin-3-yl)piperidin-1-yl]sulfonylaze-tidine-1-carboxylate]", "IC50": "10 to 100"}
{"smiles": "COc1ccc(OC(=O)N2CC(S(=O)(=O)N3CCC(c4c[nH]c5ncccc45)CC3)C2)cc1", "note": "[Compound 219, (4-methoxyphenyl) 3-[4-(1H-pyrrolo[2,3-b]pyridin-3-yl)piperidin-1-yl]sulfonylaze-tidine-1-carboxylate]", "IC50": "10 to 100"}
{"smiles": "O=C(OC1COCOC1)N1CC(S(=O)(=O)N2CCC(c3c[nH]c4ncccc34)CC2)C1", "note": "[Compound 220, 1,3-dioxan-5-yl 3-[4-(1H-pyrrolo[2,3-b]pyridin-3-yl)piperidin-1-yl]sulfonylaze-tidine-1-carboxylate]", "IC50": "10 to 100"}
{"smiles": "CC(C)(C)OC(=O)N1CC(S(=O)(=O)N2CCC(c3c[nH]c4nccc(F)c34)CC2)C1", "note": "[Compound 221, tert-butyl 3-[4-(4-fluoro-1H-pyrrolo[2,3-b]pyridin-3-yl)piperidin-1-yl]sulfonylaze-tidine-1-carboxylate]", "IC50": "100 to 1000"}
{"smiles": "O=C(OC1COC1)N1CC(S(=O)(=O)N2CCC(c3c[nH]c4ncccc34)CC2)C1", "note": "[Compound 222, oxetan-3-yl 3-[4-(1H-pyrrolo[2,3-b]pyridin-3-yl)piperidin-1-yl]sulfonylaze-tidine-1-carboxylate]", "IC50": "100 to 1000"}
{"smiles": "Cc1[nH]c2ncccc2c1C1CCN(S(=O)(=O)C2CN(C(=O)OC(C)(C)C)C2)CC1", "note": "[Compound 224]", "IC50": "1000 to 10000"}
{"smiles": "CC(C)(C)OC(=O)N1CC(S(=O)(=O)N2CCN(c3nsc4ccccc34)CC2)C1", "note": "[Compound 225, tert-butyl 3-[4-(1,H-benzothiazol-3-yl)piperazin-1-yl]sulfonylaze-tidine-1-carboxylate]", "IC50": "1000 to 10000"}
{"smiles": "CC(C)(C)OC(=O)N1CC(S(=O)(=O)N2CCN(c3c[nH]c4ncccc34)CC2)C1", "note": "[Compound 226, tert-Butyl 3-[4-(1H-pyrrolo[2,3-b]pyridin-3-yl)piperazin-1-yl]sulfonylazetidine-1-carboxylate]", "IC50": "1000 to 10000"}
{"smiles": "COc1ccc(N2CCN(S(=O)(=O)C3CCN(C(=O)OC(C)(C)C)CC3)CC2)cc1", "note": "[Compound 227, tert-butyl 4-[4-(4-methoxyphenyl)piperazin-1-yl]sulfonylpiper-idine-1-carboxylate]", "IC50": "1000 to 10000"}
{"smiles": "CC(C)(C)OC(=O)N1CCC(S(=O)(=O)N2CC=C(c3csc4cccnc34)CC2)CC1", "note": "[Compound 230, tert-butyl 4-[(4-thieno[3,2-b]pyridin-3-yl-3,6-dihydro-2H-pyridin-1-yl)sulfonyl]pip eridine-1-carboxylate]", "IC50": "100 to 1000"}
{"smiles": "CC(C)(C)OC(=O)N1CC(S(=O)(=O)N2CC=C(c3coc4cccnc34)CC2)C1", "note": "[Compound 231, tert-butyl 3-[(4-furo[3,2-b]pyridin-3-yl-3,6-dihydro-2H-pyridin-1-yl)sulfonyl]aze tidine-1-carboxylate]", "IC50": "100 to 1000"}
{"smiles": "CC(C)(C)OC(=O)N1CCC(S(=O)(=O)N2CC=C(c3coc4cccnc34)CC2)CC1", "note": "[Compound 232, tert-butyl 4-[(4-furo[3,2-b]pyridin-3-yl-3,6-dihydro-2H-pyridin-1-yl)sulfonyl]pip eridine-1-carboxylate]", "IC50": "100 to 1000"}
